Source: patent publication EP3262942A1, “SELENODIARYLS FOR USE AS MICROBICIDE OR AS MEDICINE” (Evonik Degussa GmbH, priority 2016, dated 2018)

Columns and labels:
[1] = system: M. grisea CM; test: microbe, parasite or virus in culture; assay type: cell-based, Magnaporthe grisea; settings: Pyricularia grisea, 24 h, read-out: Aktivität gegenüber M. grisea CM
[2] = system: alle getesteten Pathogene; assay type: cell-based; settings: 5-50 µg/mL
[3] = system: Penicillium notatum; test: Growth test in microtiter plates, HA medium, 24 h, visual evaluation; assay type: cell-based; design: key: +: kein Wachstum im Vergleich zur Wachstumskontrolle; -: Wachstum wie Wachstumskontrolle
[4] = system: Botrytis cinerea; test: microbe, parasite or virus in culture; assay type: cell-based; settings: for inhibition of growth at 5 µg/mL / inhibition of growth at 10 µg/mL / inhibition of growth at 25 µg/mL / inhibition of growth at 50 µg/mL: Botrytis cinerea, 24 h, read-out: Aktivität gegenüber B. cinerea
[5] = system: M. grisea H2O; test: microbe, parasite or virus in culture; assay type: cell-based, Magnaporthe grisea; settings: Pyricularia grisea, H2O, 24 h, read-out: Aktivität gegenüber M. grisea H2O
[6] = system: Setaria italica; test: Crop plant growth test, seeds on filter discs, 4 days, visual evaluation; assay type: in vivo
Experimental: (§1) Testsubstanzen und Kontrollen werden auf Filterrondellen in Mikrotiterplatten (48 well) vorgelegt und das verwendete Lösungsmittel (DMSO) über Lyophilisation entfernt. Anschließend werden ca. 12 Samen pro Vertiefung (Setaria italical Lepidium sativum) zugeben, mit 200 µl sterilem Leitungswasser pro Vertiefung versetzt, mit einem Deckel versehen und in einer feuchten Kammer für 4 Tage im Pflanzenbrutschrank inkubiert (16h-Licht-8h-Dunkel-Rhythmus). Die Auswertung des Tests erfolgt optisch (+: mind. 75 % Wachstumshemmung im Vergleich zur Kontrolle, -: weniger als 75 % Wachstumshemmung im Vergleich zur Kontrolle.

[7] = system: Lepidium sativum; test: as above; assay type: in vivo
Experimental: as §1

[8] = system: P. infestans; test: microbe, parasite or virus in culture; assay type: cell-based, Phytophthora infestans; settings: Phytophthora infestans, 24 h, read-out: Aktivität gegenüber P. infestans
[9] = system: Paecilomyces variotii; test: Growth test in microtiter plates, HA medium, 24 h, visual evaluation; assay type: cell-based; design: key: +: kein Wachstum im Vergleich zur Wachstumskontrolle; -: Wachstum wie Wachstumskontrolle
[10] = system: Mucor miehei; test: as above; assay type: cell-based; design: key to Aktivität gegenüber M. miehei: +: kein Wachstum im Vergleich zur Wachstumskontrolle; -: Wachstum wie Wachstumskontrolle
[11] = system: Candida albicans; test: as above; assay type: cell-based; design: key: +: kein Wachstum im Vergleich zur Wachstumskontrolle; -: Wachstum wie Wachstumskontrolle

SMILES	inhibition of growth at 5 µg/mL [1] [%]	inhibition of growth at 10 µg/mL [1] [%]	inhibition of growth at 25 µg/mL [1] [%]	inhibition of growth at 50 µg/mL [1] [%]	Aktivität im Wachstums- und Keimungshemmungstest gegen die getesteten Pathogene [2]	Aktivität gegenüber P. notatum ([3]; 10µg/mL)	Aktivität gegenüber P. notatum ([3]; 50µg/mL)	inhibition of growth at 5 µg/mL [4] [%]	inhibition of growth at 10 µg/mL [4] [%]	inhibition of growth at 25 µg/mL [4] [%]	inhibition of growth at 50 µg/mL [4] [%]	inhibition of growth at 5 µg/mL [5] [%]	inhibition of growth at 10 µg/mL [5] [%]	inhibition of growth at 25 µg/mL [5] [%]	inhibition of growth at 50 µg/mL [5] [%]	Aktivität gegenüber Nutzpflanzen: S. italica ([6]; 10µg/R)	Aktivität gegenüber Nutzpflanzen: S. italica ([6]; 20µg/R)	Aktivität gegenüber Nutzpflanzen: S. italica ([6]; 50µg/R)	Aktivität gegenüber Nutzpflanzen: L. sativum ([7]; 10µg/R)	Aktivität gegenüber Nutzpflanzen: L. sativum ([7]; 20µg/R)	other results
CCc1cc([Se]c2cc(CC)cc(C(C)(C)C)c2O)c(O)c(C(C)(C)C)c1 [Verbindung 15, Bis(3-tert-butyl-5-ethyl-2-hydroxyphenyl)selen]	0 to 25	0 to 25	0 to 25	0 to 25	weder im Wachstums- noch im Keimungshemmungstest im verwendeten Konzentrationsbereich eine entsprechende Aktivität	-	-	0 to 25	0 to 25	0 to 25	0 to 25	0 to 25	0 to 25	0 to 25	0 to 25	- (weniger als 75 % Wachstumshemmung im Vergleich zur Kontrolle)	- (weniger als 75 % Wachstumshemmung im Vergleich zur Kontrolle)	- (weniger als 75 % Wachstumshemmung im Vergleich zur Kontrolle)	- (weniger als 75 % Wachstumshemmung im Vergleich zur Kontrolle)	- (weniger als 75 % Wachstumshemmung im Vergleich zur Kontrolle)	Aktivität gegenüber Nutzpflanzen: L. sativum ([7]; 50µg/R): - (weniger als 75 % Wachstumshemmung im Vergleich zur Kontrolle); inhibition of growth at 5 µg/mL [8]: 0 to 25%; inhibition of growth at 10 µg/mL [8]: 0 to 25%; inhibition of growth at 25 µg/mL [8]: 0 to 25%; inhibition of growth at 50 µg/mL [8]: 0 to 25%; Aktivität gegenüber P. variotii ([9]; 10µg/mL): -; Aktivität gegenüber P. variotii ([9]; 50µg/mL): -; Aktivität gegenüber M. miehei ([10]; 10µg/mL): -; Aktivität gegenüber M. miehei ([10]; 50µg/mL): -; Aktivität gegenüber C. albicans ([11]; 10µg/mL): -; Aktivität gegenüber C. albicans ([11]; 50µg/mL): -
CCC(C)(C)c1cc([Se]c2cc(C(C)(C)CC)cc(C(C)(C)CC)c2O)c(O)c(C(C)(C)CC)c1 [Verbindung 16, Bis(3,5-di(1,1-dimethylpropyl)-2-hydroxyphenyl)selen]	0 to 25	0 to 25	0 to 25	0 to 25	weder im Wachstums- noch im Keimungshemmungstest im verwendeten Konzentrationsbereich eine entsprechende Aktivität	-	-	0 to 25	0 to 25	0 to 25	0 to 25	0 to 25	0 to 25	0 to 25	0 to 25	- (weniger als 75 % Wachstumshemmung im Vergleich zur Kontrolle)	- (weniger als 75 % Wachstumshemmung im Vergleich zur Kontrolle)	- (weniger als 75 % Wachstumshemmung im Vergleich zur Kontrolle)	- (weniger als 75 % Wachstumshemmung im Vergleich zur Kontrolle)	- (weniger als 75 % Wachstumshemmung im Vergleich zur Kontrolle)	Aktivität gegenüber Nutzpflanzen: L. sativum ([7]; 50µg/R): - (weniger als 75 % Wachstumshemmung im Vergleich zur Kontrolle); inhibition of growth at 5 µg/mL [8]: 0 to 25%; inhibition of growth at 10 µg/mL [8]: 0 to 25%; inhibition of growth at 25 µg/mL [8]: 0 to 25%; inhibition of growth at 50 µg/mL [8]: 0 to 25%; Aktivität gegenüber P. variotii ([9]; 10µg/mL): -; Aktivität gegenüber P. variotii ([9]; 50µg/mL): -; Aktivität gegenüber M. miehei ([10]; 10µg/mL): -; Aktivität gegenüber M. miehei ([10]; 50µg/mL): -; Aktivität gegenüber C. albicans ([11]; 10µg/mL): -; Aktivität gegenüber C. albicans ([11]; 50µg/mL): -
Cc1cc(C(C)C)c(O)c([Se]c2c(C)c(C)cc(C(C)C)c2O)c1C [Verbindung 18, Bis(5,6-dimethyl-2-hydroxy-3-isopropylphenyl)selen]	0 to 25	0 to 25	0 to 25	0 to 25	weder im Wachstums- noch im Keimungshemmungstest im verwendeten Konzentrationsbereich eine entsprechende Aktivität	-	-	0 to 25	0 to 25	0 to 25	0 to 25	0 to 25	0 to 25	0 to 25	0 to 25	- (weniger als 75 % Wachstumshemmung im Vergleich zur Kontrolle)	- (weniger als 75 % Wachstumshemmung im Vergleich zur Kontrolle)	- (weniger als 75 % Wachstumshemmung im Vergleich zur Kontrolle)	- (weniger als 75 % Wachstumshemmung im Vergleich zur Kontrolle)	- (weniger als 75 % Wachstumshemmung im Vergleich zur Kontrolle)	Aktivität gegenüber Nutzpflanzen: L. sativum ([7]; 50µg/R): - (weniger als 75 % Wachstumshemmung im Vergleich zur Kontrolle); inhibition of growth at 5 µg/mL [8]: 0 to 25%; inhibition of growth at 10 µg/mL [8]: 0 to 25%; inhibition of growth at 25 µg/mL [8]: 0 to 25%; inhibition of growth at 50 µg/mL [8]: 0 to 25%; Aktivität gegenüber P. variotii ([9]; 10µg/mL): -; Aktivität gegenüber P. variotii ([9]; 50µg/mL): -; Aktivität gegenüber M. miehei ([10]; 10µg/mL): -; Aktivität gegenüber M. miehei ([10]; 50µg/mL): -; Aktivität gegenüber C. albicans ([11]; 10µg/mL): -; Aktivität gegenüber C. albicans ([11]; 50µg/mL): -
Cc1cc([Se]c2cc(C)c(O)c(C)c2)cc(C)c1O [Verbindung 19, Bis(3,5-dimethyl-4-hydroxyphenyl)selen]	> 75	> 75	> 75	> 75	deutliche Aktivität gegenüber allen getesteten Pathogenen, mit Ausnahme von C. albicans	-	+	25 to 50	> 75	> 75	0 to 25	> 75	> 75	> 75	> 75	+ (mind. 75 % Wachstumshemmung im Vergleich zur Kontrolle)	+ (mind. 75 % Wachstumshemmung im Vergleich zur Kontrolle)	+ (mind. 75 % Wachstumshemmung im Vergleich zur Kontrolle)	- (weniger als 75 % Wachstumshemmung im Vergleich zur Kontrolle)	- (weniger als 75 % Wachstumshemmung im Vergleich zur Kontrolle)	mikrobizide Wirksamkeit gegenüber B. cinerea [4]: mikrobizide Wirksamkeit; Effekt auf S. italica ([6]; […]): wachstumshemmenden Effekt; Aktivität gegenüber Nutzpflanzen: L. sativum ([7]; 50µg/R): - (weniger als 75 % Wachstumshemmung im Vergleich zur Kontrolle); inhibition of growth at 5 µg/mL [8]: 0 to 25%; inhibition of growth at 10 µg/mL [8]: 50 to 75%; inhibition of growth at 25 µg/mL [8]: 50 to 75%; inhibition of growth at 50 µg/mL [8]: 0 to 25%; Aktivität gegenüber P. variotii ([9]; 10µg/mL): -; Aktivität gegenüber P. variotii ([9]; 50µg/mL): -; Aktivität gegenüber M. miehei ([10]; 10µg/mL): +; Aktivität gegenüber M. miehei ([10]; 50µg/mL): +; Aktivität gegenüber C. albicans ([11]; 10µg/mL): -; Aktivität gegenüber C. albicans ([11]; 50µg/mL): -
